One data set concerns Male Sprague-Dawley rats. In words: tests of locomotor function (placing, grasping, righting reflex) and general behaviors. The format is in vivo, rat. Particulars: mean (SD). The procedure: The effects of ODNs on locomotor function were examined using the following methods.^52 The animals were organized randomly into six groups: control (saline); 12.5 antisense ODN; 25 μg antisense ODN; 50 μg antisense ODN; 50 μg sense ODN; 50 μg missense ODN. The rats were pretreated with ODNs or saline in the manner described above. On the fifth day, 10 μl of saline was injected intrathecally for each rat. In some saline or antisense ODN (50 μg)-treated rats, fresh NMDA solution (1.25 μg/10 μl) was injected intrathecally. The following tests were performed with the experimenter blind to which group was treated with the agents: (1) Placing reflex: The rat was held with the hind limbs slightly lower than the forelimbs, and the dorsal surfaces of the hind paws were brought into contact with the edge of a table. The experimenter recorded whether the hind paws were placed on the table surface reflexively; (2) Grasping reflex: The rat was placed on a wire grid and the experimenter recorded whether the hind paws grasped the wire on contact; (3) Righting reflex: The rat was placed on its back on a flat surface and the experimenter noted whether it immediately assumed the normal upright position. […] In addition, the rat general behaviors including spontaneous activity were observed.

For the next data set, the system named is PSD-95/SAP90. In words: immunoblot of PSD-95/SAP90 expression in spinal cord of OND-treated rats. The format is in vivo, rat. From the text: Antisense ONDs, widely used as research tools and even as drugs in clinical trials, inhibit protein expression by the mechanisms of (1) steric blockade of ribosomal subunit attachment to mRNA at the 5′ cap site; (2) interference with proper mRNA splicing through antisense binding to splice donor or splice acceptor sites; (3) Rnase-H-mediated degradation of hybridized mRNA.^18 To further examine whether the action of antisense OND for PSD-95/SAP90 above was specifically due to selective decrease or lack of PSD-95/SAP90 but not other proteins in the spinal cord, we detected PSD-95/SAP90, NMDA receptor subunits 2A/2B (NR2A/2B), neuronal nitric oxide synthase (nNOS) and SAP-102 in homogenates from crude lumbar enlargement segments in the normal, saline-treated (control) and OND-treated rats. […]
Animal preparation and behavioral testing. […] Nociception was evaluated by the radiant heat tail-flick test. The doses and time point of maximal effect of NMDA used in the present study were determined based on a previous study.^24 The tail-flick apparatus (Model 33B Tail Flick Analgesy Meter, IITC Life Science, Woodland Hills, Calif., USA) generated a beam of radiant heat that was focused on the underside of the tail, 5 cm from the tip. […] Nociception was assessed by the time required to induce tail-flick after applying radiant heat to the skin of the tail. […]
Background: In western blotting, separated proteins are transferred to a membrane and probed.

The mark [1] stands for this setting: 12.5 μg, count of normal reflexes in five trials.
The mark [2] stands for this setting: 25 μg, count of normal reflexes in five trials.
The mark [3] stands for this setting: 50 μg AS + 1.25 μg NMDA, five trials.
Setting [4] is: 50 μg, count of normal reflexes in five trials.

“5′-TGTGATCTCCTCATACTC-3′ (DNA, backbone and methylation of C not given here; listed as Rattus rattus) [antisense oligonucletide corresponding to the PDZ domain nucleotides 241 to 258 of rat PSD-95/SAP90 mRNA]”: the Grasping is given as 5 (0) with Male Sprague-Dawley rats (setting [1]), 5 (0) with Male Sprague-Dawley rats (setting [2]), 4.83 (0.41) with Male Sprague-Dawley rats (setting [3]) and 4.67 (0.52) in the data set with Male Sprague-Dawley rats (setting [4]). Also, the Placing with Male Sprague-Dawley rats (setting [1]) is 5 (0); in the data set on Male Sprague-Dawley rats (setting [2]) it was 5 (0); with Male Sprague-Dawley rats (setting [3]) it was 4.83 (0.41); in the data set on Male Sprague-Dawley rats (setting [4]), 4.83 (0.41). The Righting is given as 5 (0) with Male Sprague-Dawley rats (setting [1]), 5 (0) in the data set on Male Sprague-Dawley rats (setting [2]), 4.83 (0.41) in the data set with Male Sprague-Dawley rats (setting [3]) and 4.83 (0.41) in the data set with Male Sprague-Dawley rats (setting [4]). The PSD-95/SAP90 expression in the data set on PSD-95/SAP90 (spinal cord, after intrathecal treatment (FIG. 1Ab)) is reported as < 15 % of control.

As for “5′-AAGCCCTTGTTCCCATTT-3′ (DNA, backbone and methylation of C not given here; listed as Rattus rattus) [MS, missense OND control, reference compound]”, in the data set on Male Sprague-Dawley rats (setting [4]), the Grasping is listed as 5 (0), the Placing is recorded as 5 (0) and the Righting was 5 (0). Moreover, the “PSD-95/SAP90 protein in the postsynaptic density (PSD) fraction of the spinal cord” value in the data set with PSD-95/SAP90 (FIGS. 1Aa and b) is given as “enriched”.

The values are drawn from US8148347B2, “Inhibition of interaction of PSD93 and PSDS95 with nNOS and NMDA receptors” (The Johns Hopkins University, priority 2000, dated 2012).
